Measurements as given in paper PMC5881582 (ChemMedChem, 2017).
Read-outs that look alike come from different tables or passages of the source.

Assays:
[1] = test system: acetylation of histones H3 and H4 in SH-SY5Y cells; assay: histone H3 and H4 acetylation by Western blot; type: cell-based, human; settings: 5 µM; for acetylation of H3 and H4: 6 h; for time-dependent increase in acetylation of H3 and H4: 24 h
[2] = test system: acetylation of histones H3 and H4 in HT-29 cells; assay: histone H3 and H4 acetylation by Western blot; type: cell-based, human; settings: HT-29, 5 µM; for time-dependent increase in acetylation of H3 and H4: 24 h
[3] = test system: acetylation of α-tubulin (HDAC6 substrate) in HT-29 cells; assay: α-tubulin acetylation by Western blot; type: cell-based, human; settings: HT-29, 5 µM; for acetylation level of α-tubulin: 6 h; for time-dependent increase in acetylation of α-tubulin: 24 h
[4] = test system: acetylation of α-tubulin (HDAC6 substrate) in SH-SY5Y cells; assay: α-tubulin acetylation by Western blot; type: cell-based, human; settings: 5 µM, 6 h
recombinant human HDAC1 = recombinant human HDAC1 (Homo sapiens, UniProt Q13547); assay: competitive fluorescence-based HDAC deacetylase assay, Boc-L-Lys; type: biochemical; settings: read-out: IC50 HDAC1; mean ± SD of at least two independent experiments
HT-29 cells = assay: antiproliferative alamarBlue assay; settings: n=4
recombinant human HDAC3 = recombinant human HDAC3 (Homo sapiens, UniProt O15379); assay: competitive fluorescence-based HDAC deacetylase assay, Boc-L-Lys; type: biochemical; settings: for Selectivity HDAC3/HDAC1: HDAC3 IC50 divided by HDAC1 IC50; for IC50: read-out: IC50 HDAC3, mean ± SD of at least two independent experiments
SH-SY5Y cells = assay: antiproliferative alamarBlue assay; settings: n=4
recombinant human HDAC2 = recombinant human HDAC2 (Homo sapiens, UniProt Q92769); assay: competitive fluorescence-based HDAC deacetylase assay, Boc-L-Lys; type: biochemical; settings: for Selectivity HDAC2/HDAC1: HDAC2 IC50 divided by HDAC1 IC50; for IC50: read-out: IC50 HDAC2, mean ± SD of at least two independent experiments
[5] = target: T1, purified recombinant human HDAC8 (Homo sapiens, UniProt Q9BY41); assay: fluorescence-based HDAC8 assay, commercially available HDAC substrate; type: biochemical; settings: for Selectivity HDAC8/HDAC1: HDAC8 IC50 divided by HDAC1 IC50; for IC50: read-out: IC50 HDAC8, mean ± SD of at least two independent experiments
T1 sequence (Q9BY41 1-377): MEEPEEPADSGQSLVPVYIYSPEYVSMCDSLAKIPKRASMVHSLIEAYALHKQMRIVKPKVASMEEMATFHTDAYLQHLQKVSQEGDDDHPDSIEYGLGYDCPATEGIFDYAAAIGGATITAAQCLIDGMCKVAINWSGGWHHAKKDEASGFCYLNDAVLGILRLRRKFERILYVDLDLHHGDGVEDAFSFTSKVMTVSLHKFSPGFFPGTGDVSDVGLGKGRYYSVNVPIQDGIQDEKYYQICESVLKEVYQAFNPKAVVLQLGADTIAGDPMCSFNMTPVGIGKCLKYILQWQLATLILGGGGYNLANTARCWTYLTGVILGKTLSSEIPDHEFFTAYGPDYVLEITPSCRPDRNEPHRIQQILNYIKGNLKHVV

MCF-7 cells = assay: antiproliferative alamarBlue assay; settings: 10 µM, NA = no inhibition at 10 µM
microsomal stability [6] = type: in vitro ADME, human; settings: after 30 min incubation
microsomal stability [7] = type: in vitro ADME, rat; settings: after 30 min incubation
[8] = plasma and brain concentrations after i.p. dosing; type: in vivo, Spraugue Dawley rats
[9] = read-out: EC50 HT-29 24 h, 24 h
[10] = read-out: EC50 HT-29 48 h, 48 h
[11] = read-out: EC50 SH-SY5Y 24 h, 24 h
[12] = read-out: EC50 SH-SY5Y 48 h, 48 h

recombinant human HDAC2, sequence (Q92769 whole entry): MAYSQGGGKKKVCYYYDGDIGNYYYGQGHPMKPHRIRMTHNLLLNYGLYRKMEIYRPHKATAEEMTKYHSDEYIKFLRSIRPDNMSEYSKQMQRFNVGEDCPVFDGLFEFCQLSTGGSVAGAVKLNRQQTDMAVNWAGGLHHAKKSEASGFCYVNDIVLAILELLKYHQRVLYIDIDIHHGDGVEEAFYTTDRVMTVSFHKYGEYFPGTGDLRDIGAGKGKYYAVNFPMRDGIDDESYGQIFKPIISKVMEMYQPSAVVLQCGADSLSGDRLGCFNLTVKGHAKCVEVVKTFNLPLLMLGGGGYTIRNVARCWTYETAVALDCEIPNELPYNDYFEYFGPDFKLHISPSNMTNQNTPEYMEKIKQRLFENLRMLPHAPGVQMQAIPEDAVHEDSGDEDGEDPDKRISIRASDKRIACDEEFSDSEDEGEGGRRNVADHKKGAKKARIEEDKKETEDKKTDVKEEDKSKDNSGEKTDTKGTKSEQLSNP
recombinant human HDAC3, sequence (O15379 whole entry): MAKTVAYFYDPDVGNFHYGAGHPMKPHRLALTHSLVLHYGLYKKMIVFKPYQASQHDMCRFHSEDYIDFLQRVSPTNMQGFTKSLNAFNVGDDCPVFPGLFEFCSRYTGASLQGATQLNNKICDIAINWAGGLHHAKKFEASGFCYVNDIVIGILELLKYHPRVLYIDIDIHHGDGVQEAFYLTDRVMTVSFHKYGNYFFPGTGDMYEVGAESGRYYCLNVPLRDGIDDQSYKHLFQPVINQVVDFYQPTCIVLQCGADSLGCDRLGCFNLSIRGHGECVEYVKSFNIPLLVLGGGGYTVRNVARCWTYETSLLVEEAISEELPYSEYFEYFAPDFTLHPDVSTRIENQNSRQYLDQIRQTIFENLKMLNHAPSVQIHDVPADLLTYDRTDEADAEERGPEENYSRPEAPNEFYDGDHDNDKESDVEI
recombinant human HDAC3, sequence (Q9Y618 395-489 partner limits assumed): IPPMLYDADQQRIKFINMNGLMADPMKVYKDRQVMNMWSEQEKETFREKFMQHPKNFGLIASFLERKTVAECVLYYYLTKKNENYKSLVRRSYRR
recombinant human HDAC1, sequence (Q13547 whole entry): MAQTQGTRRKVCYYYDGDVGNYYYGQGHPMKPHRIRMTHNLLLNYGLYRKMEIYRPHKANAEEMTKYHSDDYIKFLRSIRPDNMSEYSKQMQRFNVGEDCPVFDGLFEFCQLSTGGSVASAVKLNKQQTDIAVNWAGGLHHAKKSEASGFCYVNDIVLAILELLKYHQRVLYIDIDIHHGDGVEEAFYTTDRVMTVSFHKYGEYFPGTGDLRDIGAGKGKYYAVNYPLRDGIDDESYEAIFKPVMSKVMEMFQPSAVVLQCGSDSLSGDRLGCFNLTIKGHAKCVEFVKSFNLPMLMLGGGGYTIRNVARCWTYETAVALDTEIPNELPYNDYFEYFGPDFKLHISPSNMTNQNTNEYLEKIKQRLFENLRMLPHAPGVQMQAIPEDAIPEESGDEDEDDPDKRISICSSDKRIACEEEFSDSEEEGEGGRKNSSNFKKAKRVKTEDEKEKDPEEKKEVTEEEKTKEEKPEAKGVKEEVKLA

Row | Structure (SMILES) | acetylation of H3 and H4 [1] | time-dependent increase in acetylation of H3 and H4 [1] | acetylation level of H3 ([2]; 6 h) | time-dependent increase in acetylation of H3 and H4 [2] | acetylation level of α-tubulin [3] | time-dependent increase in acetylation of α-tubulin [3] | acetylation of α-tubulin [4] | IC50 (recombinant human HDAC1) [nM] | EC50 (HT-29 cells; [9]) [nM] | EC50 (HT-29 cells; [10]) [nM] | Selectivity HDAC3/HDAC1 (recombinant human HDAC3) | IC50 (recombinant human HDAC3) [nM] | EC50 (SH-SY5Y cells; [11]) [nM] | EC50 (SH-SY5Y cells; [12]) [nM] | Selectivity HDAC2/HDAC1 (recombinant human HDAC2) | IC50 (recombinant human HDAC2) [nM] | Selectivity HDAC8/HDAC1 [5] | IC50 [5] [nM] | also measured
1 | O=C(CCCCCCC(=O)Nc1ccccc1)NO [compound 1, SAHA, reference compound] | acetylation of both H3 and H4 was increased | time-dependent increase in acetylation of H3 and H4 was observed | increased the acetylation level of H3 | unable to cause any significant time-dependent increase | increased the acetylation level of α-tubulin | time-dependent increase in acetylation of α-tubulin | increased the acetylation of α-tubulin | – | – | – | – | – | – | – | – | – | – | – | –
2 | O=C(CCCCCCNCc1ccc2ccccc2c1)NO [compound 2g] | acetylation of both H3 and H4 was increased | time-dependent increase in acetylation of H3 and H4 was observed | increased the acetylation level of H3 | time-dependent increase in acetylation of H3 and H4 was observed | increased the acetylation level of α-tubulin | – | increased the acetylation of α-tubulin | 39 ± 3 | > 50000 | 1100 ± 110 | 1.7 | 68 ± 2 | > 50000 | 1200 ± 220 | 8.2 | 320 ± 13 | 8.2 | 320 ± 26 | acetylation of H4 ([2]; 6 h): significantly increase acetylation of H4
3 | O=C(CCCCCCNCc1cc2ccccc2[nH]1)NO [compound 2j] | acetylation of both H3 and H4 was increased | time-dependent increase in acetylation of H3 and H4 was observed | increased the acetylation level of H3 | time-dependent increase in acetylation of H3 and H4 was observed | increased the acetylation level of α-tubulin | time-dependent increase in acetylation of α-tubulin | increased the acetylation of α-tubulin | 61 ± 5.9 | > 50000 | 2100 ± 170 | 0.41 | 25 ± 2 | > 50000 | 1300 ± 390 | 4.2 | 260 ± 15 | 10 | 620 ± 42 | Growth inhibition percentage MCF-7 24 h (MCF-7 cells): 61%; percent left in HLM (microsomal stability [6]): 12%; percent left in RLM (microsomal stability [7]): 85%; brain concentration fold above IC50 for HDAC1 ([8]; 20 min): 6.7 fold; brain concentration fold above IC50 for HDAC2 ([8]; 20 min): 1.6 fold; brain concentration fold above IC50 for HDAC3 ([8]; 20 min): 16 fold; plasma concentration fold higher than IC50 for HDAC1 ([8]; 20 min): 230 fold; plasma concentration fold higher than IC50 for HDAC2 ([8]; 20 min): 54 fold; plasma concentration fold higher than IC50 for HDAC3 ([8]; 20 min): 560 fold; plasma concentration fold higher than IC50 for HDAC8 ([8]; 20 min): 23 fold; brain concentration fold higher than the IC50 for class I HDACs ([8]; abstract): > 1.6 fold; plasma concentration fold higher than the IC50 for class I HDACs ([8]; abstract): > 23 fold; Plasma level ([8]; rat, 25 mg/kg i.p., 20 min): 3820 ± 2050 ng/mL; molar concentration in brain ([8]; rat, 25 mg/kg i.p., 20 min): 0.41 µM; molar concentration in plasma ([8]; rat, 25 mg/kg i.p., 20 min): 14 µM; rat brain level ([8]; rat, 25 mg/kg i.p., 20 min): 122 ± 21 ng/mL; Plasma level ([8]; rat, 25 mg/kg i.p., 40 min): 2100 ± 720 ng/mL; rat brain level ([8]; rat, 25 mg/kg i.p., 40 min): 107 ± 15 ng/mL
